In patent publication US8148058B2, “Method for screening allergic disease-related molecule and cell lines to be used in the method” (Tokyo University of Science Educational Foundation …, priority 2006, dated 2012):

Experiments:
[1] = test system: R cell; test: Maintenance / growth potential of R cells in culture with cytokines or RCGF; format: cell-based, mouse
Method: Further, anti-Thy1.2 antibodies (manufactured by Pharmingen) and complement (rabbit serum, manufactured by Pel-Freeze) were respectively added to the resulting culture at 1 μg/ml and at a final concentration of 10% by volume per 1×10^7 cells/100 μl. After about 30 minutes of reaction, […] therefrom and the cultivation was continued while the RCGF was added at various concentrations.
Thereafter, respective cell lines were cultured in accordance with the dilution method over the course of three weeks and cloned.

[2] = test system: N62.5 cells; test: Proliferation of N62.5 cells, 3H-thymidine uptake; format: cell-based, mouse; conditions: 48 hours culture, then 12 hours 3H-thymidine
Method: (§1) R cells, N62.5 cells, or RCCM cells obtained in Example 1 were placed in each well of a 96-well microplate at a seeding density of 1.5×10^4 cells/well. A culture medium in which the content of RCGF was changed was used and the sensitivities of the cells to RCGF were confirmed.
(§2) The concentrations of RCGF were set to 10 v/v %, 0.1 v/v %, and 0 v/v %. The cells were cultured in an RPMI 1640 culture medium containing 10% by volume of serum at 37° C. in 5% CO2 atmosphere for 48 hours. Thereafter, ^3H-thymidine was added to the culture medium so as to give a final concentration of 0.5 μCi/ml, and the resultant was further cultured for 12 hours and the uptake amount of ^3H during the time was measured. After the reaction, the uptake amount of ^3H-thymidine was measured using MicroBeta TRIL UX (manufactured by WALLAC). In FIGS. 1 (A) to (C), black rhombuses indicate RCCM cells, black squares indicate R cells, and black triangles indicate N62.5 cells. […]
(§3) In this regard, the concentration of RCGF was based on ½ serial dilutions (starting with 80% by volume of the culture medium). […] Thereafter, ^3H-thymidine was added to the culture medium so as to give a final concentration of 0.5 μCi/ml, and the resultant was further cultured for 12 hours and the uptake amount of ^3H during the time was measured. […]

[3] = test system: P185 cells; test: Proliferation of P185 cells (basophil-like cell line), 3H-thymidine uptake; format: cell-based; conditions: 1/2 serial dilutions starting with 10 ng/ml; 48 hours culture, then 12 hours 3H-thymidine
Method: R cells, N62.5 cells, or RCCM cells obtained in Example 1 and P185 cells (a basophil-like cell line) were placed in each well of a 96-well microplate at a seeding density of 1.5×10^4 cells/well in the same manner as described in Example 4. ½ serial dilutions (starting with 10 ng/ml) of LY294002 (a PI3K inhibitor; Cat No. FA-002, manufactured by SuperArray) and Rottlerin (a PKC inhibitor; Cat No. 557370, manufactured by CALBIOCHEM) were added to each well, which was cultured at 37° C. in a 5% CO2 atmosphere for 48 hours. Thereafter, ^3H-thymidine was added to the culture medium so as to give a final concentration of 0.5 μCi/ml, and culturing was further performed for 12 hours and the uptake amount of ^3H during the time was measured. In FIGS. 7 and 8, black squares indicate R cells, black triangles indicate N62.5 cells, black rhombuses indicate RCCM cells, and black circles indicate P185. FIG. 7 is a graph showing the response of respective cells to LY294002. FIG. 8 is a graph showing the response of respective cells to Rottlerin.

[4] = test system: R cells; test: Proliferation of R cells, 3H-thymidine uptake; format: cell-based, mouse; conditions: 1/2 serial dilutions starting with 10 ng/ml; 48 hours culture, then 12 hours 3H-thymidine
Method: as §1, §2, §3

[5] = test system: RCCM cells; test: Proliferation of RCCM cells, 3H-thymidine uptake; format: cell-based, mouse; conditions: 48 hours culture, then 12 hours 3H-thymidine; for proliferation of RCCM cells in response to inhibitor (uptake amount of 3H-thymidine): 1/2 serial dilutions starting with 10 ng/ml
Method: as §1
The concentrations of RCGF were set to 10 v/v %, 0.1 v/v %, and 0 v/v %. The cells were cultured in an RPMI 1640 culture medium containing 10% by volume of serum at 37° C. in 5% CO2 atmosphere for 48 hours. Thereafter, ^3H-thymidine was added to the culture medium so as to give a final concentration of 0.5 μCi/ml, and the resultant was further cultured for 12 hours and the uptake amount of ^3H during the time was measured. After the reaction, the uptake amount of ^3H-thymidine was measured using MicroBeta TRIL UX (manufactured by WALLAC). In FIGS. 1 (A) to (C), black rhombuses indicate RCCM cells, black squares indicate R cells, and black triangles indicate N62.5 cells.
R cells, N62.5 cells, or RCCM cells obtained in Example 1 were placed in each well of a 96-well microplate at a seeding density of 1.5×10^4 cells/well.
as §3
R cells, N62.5 cells, or RCCM cells obtained in Example 1 were placed in each well of a 96-well microplate at a seeding density of 1.5×10^4 cells/well in the same manner as described in Example 4. ½ serial dilutions (starting with 10 ng/ml) of phorbol 12-myristate 13 acetate (PMA) were added to each well, and culturing was performed at 37° C. in 5% CO2 atmosphere for 48 hours. Thereafter, ^3H-thymidine was added to the culture medium so as to give a final concentration of 0.5 μCi/ml, which was further cultured for 12 hours and the uptake amount of ^3H during the time was measured. […]

## IL-9: interleukin, Th2 type cytokine
[1]
  sensitivity / growth potential of R cell against cytokine: high growth potential

## CC(=O)c1c(O)c(C)c(O)c(Cc2c(O)c3c(c(C(=O)/C=C/c4ccccc4)c2O)OC(C)(C)C=C3)c1O [Rottlerin]
[2]; 1/2 serial dilutions starting with 10 ng/ml
  proliferation of N62.5 cells in response to inhibitor (uptake amount of 3H-thymidine): rapidly suppressed
[3]
  proliferation of basophil-like cell line P185 in response to inhibitor (uptake amount of 3H-thymidine): growth inhibition
[4]
  proliferation of R cells in response to inhibitor (uptake amount of 3H-thymidine): rapidly suppressed
[5]
  proliferation of RCCM cells in response to inhibitor (uptake amount of 3H-thymidine): rapidly suppressed

## GM-CFS: cytokine
[1]
  sensitivity / growth potential of R cell against cytokine: does not show sensitivity

## IL-5: interleukin, Th2 type cytokine
[1]
  sensitivity / growth potential of R cell against cytokine: high growth potential

## CCCCCCCCCCCCCC(=O)O[C@@H]1[C@@H](C)[C@@]2(O)[C@@H](C=C(CO)C[C@]3(O)C(=O)C(C)=C[C@@H]23)[C@@H]2C(C)(C)[C@]12OC(C)=O [PMA, phorbol 12-myristate 13 acetate]
[5]
  proliferation of RCCM cells in response to inhibitor (uptake amount of 3H-thymidine): suppressed by a low concentration

## IL-6: interleukin, Th2 type cytokine
[1]
  sensitivity / growth potential of R cell against cytokine: high growth potential

## IFN-γ: cytokine
[1]
  sensitivity / growth potential of R cell against cytokine: does not show sensitivity

## IL-13: interleukin, Th2 type cytokine
[1]
  sensitivity / growth potential of R cell against cytokine: high growth potential

B1: IL-10: cytokine (protein, UniProt P22301 19-178, looked up)
Interleukin-10: SPGQGTQSENSCTHFPGNLPNMLRDLRDAFSRVKTFFQMKDQLDNLLLKESLLEDFKGYLGCQALSEMIQFYLEEVMPQAENQDPDIKAHVNSLGENLKTLRLRLRRCHRFLPCENKSKAVEQVKNAFNKLQEKGIYKAMSEFDIFINYIEAYMTMKIRN
[1]
  sensitivity / growth potential of R cell against cytokine: does not show sensitivity

B2: IL-7: cytokine (protein, UniProt P13232 26-177, looked up)
Interleukin-7: DCDIEGKDGKQYESVLMVSIDQLLDSMKEIGSNCLNNEFNFFKRHICDANKEGMFLFRAARKLRQFLKMNSTGDFDLHLLKVSEGTTILLNCTGQVKGRKPAALGEAQPTKSLEENKSLKEQKKLNDLCFLKRLLQEIKTCWNKILMGTKEH
[1]
  sensitivity / growth potential of R cell against cytokine: does not show sensitivity

B3: IL-4: recombinant cytokine, manufactured by PeproTech (protein, UniProt P05112 25-153, looked up)
Interleukin-4: HKCDITLQEIIKTLNSLTEQKTLCTELTVTDIFAASKNTTEKETFCRAATVLRQFYSHHEKDTRCLGATAQQFHRHKQLIRFLKRLDRNLWGLAGLNSCPVKEANQSTLENFLERLKTIMREKYSKCSS
[2]; various concentrations
  proliferative response of N62.5 cells to RCGF / cytokines (uptake amount of 3H-thymidine): did not show sensitivity
[1]
  sensitivity / growth potential of R cell against cytokine: high growth potential
[5]; various concentrations
  proliferative response of RCCM cells to RCGF / cytokines (uptake amount of 3H-thymidine): no difference in growth potential
